Source: the NIST ThermoML archive (doi:10.1021/je0500577)

What was measured:
[1] = for surface tension liquid-gas: Drop volume; for mass density: 101.33 kPa, Liquid
[2] = xn = mol fraction of the nth substance listed

CC1CCC(C)O1 (stereo not drawn) [2,5-dimethyltetrahydrofuran]
[1]
Details	mass density [kg/m3]	surface tension liquid-gas [mN/m]
298.15 K	825.25	22.93
313.15 K	–	21.5

CC1CCC(C)O1 (stereo not drawn) [2,5-dimethyltetrahydrofuran] + BrC1CCCCC1
surface tension liquid-gas [mN/m], [2]
Details	298.15 K	313.15 K
x2 = 0	22.93	21.5
x2 = 0.0692	23.3	21.71
x2 = 0.0908	23.42	21.83
x2 = 0.1916	24.03	22.52
x2 = 0.2942	24.54	23.16
x2 = 0.3981	24.9	23.73
x2 = 0.4712	25.17	24.06
x2 = 0.5994	25.96	24.84
x2 = 0.6382	26.39	25.15
x2 = 0.701	–	25.74
x2 = 0.8032	29.16	–
x2 = 0.8035	–	27.31
x2 = 0.8552	30.35	–
x2 = 0.8558	–	28.4
x2 = 0.8996	31.47	–
x2 = 0.9378	32.34	30.81

CC1CCC(C)O1 (stereo not drawn) [2,5-dimethyltetrahydrofuran] + ClC1CCCCC1
surface tension liquid-gas [mN/m], [2], Drop volume
Details	298.15 K	313.15 K
x2 = 0	22.93	21.5
x2 = 0.054	–	21.87
x2 = 0.0582	23.29	–
x2 = 0.0998	–	22.15
x2 = 0.1048	23.51	–
x2 = 0.1988	24	–
x2 = 0.202	–	22.76
x2 = 0.3031	24.46	–
x2 = 0.3037	–	23.3
x2 = 0.4025	24.96	–
x2 = 0.4049	–	23.78
x2 = 0.5047	25.45	–
x2 = 0.509	–	24.29
x2 = 0.6055	–	24.87
x2 = 0.6071	25.99	–
x2 = 0.7039	–	25.58
x2 = 0.7088	26.75	–
x2 = 0.8075	–	26.61
x2 = 0.8097	27.83	–
x2 = 0.9009	29.1	–
x2 = 0.9065	–	27.94
x2 = 0.9479	–	28.54
x2 = 0.9482	29.98	–

CC1CCCO1 (stereo not drawn) [2-methyltetrahydrofuran]
[1]
Details	mass density [kg/m3]	surface tension liquid-gas [mN/m]
298.15 K	849.4	24.56
313.15 K	–	23.02

CC1CCCO1 (stereo not drawn) [2-methyltetrahydrofuran] + BrC1CCCCC1
[2], Drop volume, x2 = 0
Details	surface tension liquid-gas [mN/m]
298.15 K	24.56
313.15 K	23.02

CC1CCCO1 (stereo not drawn) [2-methyltetrahydrofuran] + ClC1CCCCC1
[2], Drop volume, x2 = 0
Details	surface tension liquid-gas [mN/m]
298.15 K	24.56
313.15 K	23.02

BrC1CCCCC1 [bromocyclohexane]
[1]
Details	mass density [kg/m3]	surface tension liquid-gas [mN/m]
298.15 K	1328.41	33.63
313.15 K	–	32.98

BrC1CCCCC1 [bromocyclohexane] + C1CCOC1
surface tension liquid-gas [mN/m], [2], Drop volume
Details	298.15 K	313.15 K
x1 = 0.0528	27.39	25.66
x1 = 0.0909	27.62	25.94
x1 = 0.1919	28.31	26.67
x1 = 0.2954	29.06	27.39
x1 = 0.3997	29.82	28.12
x1 = 0.5057	30.56	28.88
x1 = 0.611	31.24	29.65
x1 = 0.7127	31.89	30.42
x1 = 0.8064	–	31.18
x1 = 0.8232	32.56	–
x1 = 0.8937	32.98	–
x1 = 0.8994	–	32
x1 = 0.9467	33.31	32.44
x1 = 1	33.63	32.98

BrC1CCCCC1 [bromocyclohexane] + C1CCOCC1
surface tension liquid-gas [mN/m], [2], Drop volume
Details	298.15 K	313.15 K
x1 = 0.0539	27.62	25.95
x1 = 0.098	27.89	26.32
x1 = 0.1908	28.45	27.01
x1 = 0.296	29.11	27.7
x1 = 0.3969	29.75	28.35
x1 = 0.4993	30.43	28.98
x1 = 0.6178	31.23	29.74
x1 = 0.712	31.86	30.43
x1 = 0.8067	32.49	31.23
x1 = 0.8816	32.95	31.88
x1 = 0.9568	33.39	32.57
x1 = 1	33.63	32.98

BrC1CCCCC1 [bromocyclohexane] + CC1CCC(C)O1
[2], x1 = 1
Details	surface tension liquid-gas [mN/m]
298.15 K	33.63
313.15 K	32.98
